Here are results for one molecule from patent US10093627B2, “Tetrahydroquinoline derivatives and their use as Epac inhibitors” (Institut National de la Sante et de la Recherche Medicale …, priority 2012, dated 2018).

In one assay the target is T1, Epac2(B) (Homo sapiens, UniProt Q8WZA2).
T1 construct: Human Epac2(B) (amino acids 283-1011) lacks the first 283 amino acids of Epac2; made in house; host or cells: Escherichia coli Rosetta 2(DE3)
T1 sequence (Q8WZA2 283-1011): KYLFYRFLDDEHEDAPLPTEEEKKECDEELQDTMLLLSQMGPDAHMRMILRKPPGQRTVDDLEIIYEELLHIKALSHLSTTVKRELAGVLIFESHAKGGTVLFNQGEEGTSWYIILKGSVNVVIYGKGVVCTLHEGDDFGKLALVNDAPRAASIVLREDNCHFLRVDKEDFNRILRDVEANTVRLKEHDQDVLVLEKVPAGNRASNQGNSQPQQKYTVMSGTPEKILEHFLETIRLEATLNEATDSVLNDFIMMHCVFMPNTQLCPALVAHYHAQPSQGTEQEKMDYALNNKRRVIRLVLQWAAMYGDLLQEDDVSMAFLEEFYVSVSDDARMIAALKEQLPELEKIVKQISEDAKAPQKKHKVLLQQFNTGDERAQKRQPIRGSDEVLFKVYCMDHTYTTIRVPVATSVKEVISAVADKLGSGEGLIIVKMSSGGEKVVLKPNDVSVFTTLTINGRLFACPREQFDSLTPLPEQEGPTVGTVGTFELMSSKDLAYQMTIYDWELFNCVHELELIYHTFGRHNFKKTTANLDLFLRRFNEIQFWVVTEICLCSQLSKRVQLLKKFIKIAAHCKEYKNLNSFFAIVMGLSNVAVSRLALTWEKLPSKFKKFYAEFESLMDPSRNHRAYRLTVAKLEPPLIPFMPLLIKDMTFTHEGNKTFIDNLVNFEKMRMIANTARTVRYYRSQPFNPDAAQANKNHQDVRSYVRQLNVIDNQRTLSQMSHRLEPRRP
Briefly: In vitro GEF activity (initial velocity of GDP exchange on Rap1A) of Epac2(B). It is filed as biochemical. The text has this:
(§1) Human Epac2(AB) (amino acids 43-1011) carries both the CNB-A and the CNB-B domains. Human Epac2(B) (amino acids 283-1011) lacks the first 283 amino acids of Epac2. It is therefore deleted of its CNB-A and DEP domains, but retains the CNB-B domain and the full catalytic region. Epac2(AB) was obtained by HindIII/NotI restriction and Epac2(B) was obtained by Ssp1/Not1 restriction of a human Epac2A cDNA (a gift from Ann M Graybiel, Department of Brain and Cognitive Sciences, MIT, Cambridge). Both cDNA fragments were inserted into pET41a (Novagen), expressed in Escherichia coli Rosetta 2(DE3) (Novagen), and the GST-tagged fusion proteins were purified by nickel-nitrilotriacetic acid beads (Qiagen), as described in D. Courilleau, et al., Identification of a tetrahydroquinoline analog as a pharmacological inhibitor of the cAMP-binding protein Epac, J. Biol. Chem. 287 (2012) 44192-44202).
In vitro GDP exchange catalyzed by Epac was measured using purified recombinant Epac isoforms and Rap1A loaded with Bodipy-GDP, as described in D. Courilleau, et al (above mentioned). The GEF activity of Epac proteins was initiated by injection of the agonist. Stock solutions of CE3F4 and its analogs (12 mM in 100% DMSO) were kept at −20° C. and were diluted in assay buffer (0.67% final DMSO concentration) just before use for GDP exchange assays. The release of Bodipy-GDP was measured in real time as the decay of fluorescence. A single exponential was fit to the time-course data using the Graphpad Prism program. The initial velocity (Vi) of GDP exchange on Rap1 was calculated as described in D. Courilleau et al.).
Data are expressed as mean±S.D. Differences in quantitative variables were examined by unpaired one- or two-tailed Student's t test. EC50 and IC50 values were computed according to a four-parameters dose-response model and compared on the basis of the extra sum-of square F test, using Graphpad Prism. Two-tailed Wilcoxon matched-pair signed rank tests were performed using GraphPad Prism.

The target in the next assay is T2, Epac2(AB) (Homo sapiens, UniProt Q8WZA2).
T2 construct: Human Epac2(AB) (amino acids 43-1011) carries both the CNB-A and the CNB-B domains; made in house; host or cells: Escherichia coli Rosetta 2(DE3)
T2 sequence (Q8WZA2 43-1011): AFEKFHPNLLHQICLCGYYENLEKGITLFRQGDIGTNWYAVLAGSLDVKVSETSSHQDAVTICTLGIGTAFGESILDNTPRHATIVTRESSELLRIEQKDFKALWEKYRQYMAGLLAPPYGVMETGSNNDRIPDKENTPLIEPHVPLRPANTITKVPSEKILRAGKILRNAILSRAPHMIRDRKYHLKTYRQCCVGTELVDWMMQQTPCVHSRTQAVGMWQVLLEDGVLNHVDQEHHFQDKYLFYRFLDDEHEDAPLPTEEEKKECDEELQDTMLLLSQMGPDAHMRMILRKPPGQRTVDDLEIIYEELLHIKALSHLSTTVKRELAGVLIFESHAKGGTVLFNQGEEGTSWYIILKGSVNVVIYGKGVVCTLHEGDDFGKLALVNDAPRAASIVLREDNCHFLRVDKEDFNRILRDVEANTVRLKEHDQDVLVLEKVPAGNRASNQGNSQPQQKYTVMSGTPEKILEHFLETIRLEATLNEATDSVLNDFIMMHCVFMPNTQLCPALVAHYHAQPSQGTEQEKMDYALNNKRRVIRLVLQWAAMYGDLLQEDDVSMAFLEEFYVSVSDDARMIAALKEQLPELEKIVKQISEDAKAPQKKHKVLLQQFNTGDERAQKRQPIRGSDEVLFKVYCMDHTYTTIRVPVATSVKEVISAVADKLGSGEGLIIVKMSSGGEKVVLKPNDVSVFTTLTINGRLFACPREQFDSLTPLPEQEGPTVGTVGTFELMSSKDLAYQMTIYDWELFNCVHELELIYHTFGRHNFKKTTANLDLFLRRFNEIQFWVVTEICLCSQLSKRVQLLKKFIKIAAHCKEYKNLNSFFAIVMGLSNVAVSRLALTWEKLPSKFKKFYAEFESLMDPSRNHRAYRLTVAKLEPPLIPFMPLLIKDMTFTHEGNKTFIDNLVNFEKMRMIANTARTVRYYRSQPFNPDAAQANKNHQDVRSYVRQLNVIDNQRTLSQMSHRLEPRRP
Description: In vitro GEF activity (initial velocity of GDP exchange on Rap1A) of Epac2(AB). In kind it is biochemical. Conditions: 50 μM racemic CE3F4; agonist 50 μM 007 or 300 μM cAMP; FIG. 6A.
Excerpt: as §1
In vitro GDP exchange catalyzed by Epac was measured using purified recombinant Epac isoforms and Rap1A loaded with Bodipy-GDP, as described in D. Courilleau, et al (above mentioned). […] The release of Bodipy-GDP was measured in real time as the decay of fluorescence. […] The initial velocity (Vi) of GDP exchange on Rap1 was calculated as described in D. Courilleau et al.).
Data are expressed as mean±S.D. Differences in quantitative variables were examined by unpaired one- or two-tailed Student's t test. […]

Structures are written as SMILES.

As for `CC1CCc2c(cc(Br)c(F)c2Br)N1C=O` (racemic) [CE3F4], the “Inhibitory effect on GEF activity of Epac2(B), compared with Epac2(AB)” value at Epac2(B) (50 μM racemic CE3F4, agonist 50 μM 007 or 300 μM cAMP, FIG. 6A) is recorded as “no significant difference”. The molecule further yielded an IC50 against Epac2(B) (Epac2(B) activated by 300 μM cAMP) of 66 µM. The “Antagonism of cAMP-activated Epac2(B) GEF activity” value at Epac2(B) (compound 30 μM, 300 μM cAMP, FIG. 6C) is “stronger antagonist”. Moreover, the “Inhibitory effect on GEF activity of Epac2(AB), compared with Epac2(B)” value on Epac2(AB) is “no significant difference”.

One may read the IC50 as the concentration at which inhibition is half-maximal. A high value points to lower potency.
